{"source": "paper PMC12420824", "about": "“Discovery of a selective alpha-kinase 1 inhibitor for the rare genetic disease ROSAH syndrome” (Nature Communications, 2025)", "key": {"AMPK (A2/B1/G2)": {"target": "AMPK (A2/B1/G2) (Homo sapiens, UniProt P54646)", "sequence (P54646 whole entry)": "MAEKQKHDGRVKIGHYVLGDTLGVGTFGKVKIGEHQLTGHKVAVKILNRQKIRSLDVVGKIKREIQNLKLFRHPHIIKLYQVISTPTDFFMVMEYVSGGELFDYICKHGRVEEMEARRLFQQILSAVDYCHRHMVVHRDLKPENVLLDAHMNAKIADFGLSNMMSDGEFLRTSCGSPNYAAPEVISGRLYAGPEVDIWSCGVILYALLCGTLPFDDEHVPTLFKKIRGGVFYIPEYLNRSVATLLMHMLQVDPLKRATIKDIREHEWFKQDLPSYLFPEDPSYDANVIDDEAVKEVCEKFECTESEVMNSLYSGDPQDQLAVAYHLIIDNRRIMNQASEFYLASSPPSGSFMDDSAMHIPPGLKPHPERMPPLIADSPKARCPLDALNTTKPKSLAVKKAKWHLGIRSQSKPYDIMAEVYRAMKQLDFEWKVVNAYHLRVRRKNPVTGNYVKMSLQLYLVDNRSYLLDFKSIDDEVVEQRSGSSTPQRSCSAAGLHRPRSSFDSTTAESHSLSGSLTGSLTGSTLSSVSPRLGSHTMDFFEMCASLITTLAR", "sequence (Q9Y478 whole entry partner)": "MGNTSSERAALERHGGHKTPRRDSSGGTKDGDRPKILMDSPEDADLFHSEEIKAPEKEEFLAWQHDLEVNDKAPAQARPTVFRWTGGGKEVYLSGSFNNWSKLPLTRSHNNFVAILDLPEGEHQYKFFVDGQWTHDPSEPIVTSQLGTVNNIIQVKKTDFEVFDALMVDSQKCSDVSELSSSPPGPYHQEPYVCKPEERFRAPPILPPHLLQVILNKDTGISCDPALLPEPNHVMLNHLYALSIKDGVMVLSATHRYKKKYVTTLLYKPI", "sequence (Q9UGJ0 whole entry partner)": "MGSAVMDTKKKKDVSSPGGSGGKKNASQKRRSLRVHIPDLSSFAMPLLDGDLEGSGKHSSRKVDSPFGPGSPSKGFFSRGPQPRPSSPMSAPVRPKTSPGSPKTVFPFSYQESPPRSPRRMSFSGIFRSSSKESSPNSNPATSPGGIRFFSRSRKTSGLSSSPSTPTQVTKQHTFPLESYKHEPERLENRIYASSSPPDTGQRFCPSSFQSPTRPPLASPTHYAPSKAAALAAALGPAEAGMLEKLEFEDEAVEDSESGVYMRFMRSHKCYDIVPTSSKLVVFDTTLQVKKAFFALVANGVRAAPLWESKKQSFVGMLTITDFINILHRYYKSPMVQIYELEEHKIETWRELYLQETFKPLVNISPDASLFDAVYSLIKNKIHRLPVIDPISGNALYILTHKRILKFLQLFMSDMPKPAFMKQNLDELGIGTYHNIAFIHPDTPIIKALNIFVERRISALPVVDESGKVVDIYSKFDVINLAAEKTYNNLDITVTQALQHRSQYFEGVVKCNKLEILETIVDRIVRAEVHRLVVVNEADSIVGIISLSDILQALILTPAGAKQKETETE", "assay": "HotSpot kinase assay", "details": "read-out: % Enzyme Activity (relative to DMSO control), 10 uM", "source_text": "(§1) Additionally, a 10-dose dilution series of staurosporine and other enzyme-appropriate compounds were included as positive control inhibitors."}, "CAMK1b": {"target": "CAMK1b (Homo sapiens, UniProt Q6P2M8)", "assay": "HotSpot kinase assay", "details": "read-out: % Enzyme Activity (relative to DMSO control), 10 uM"}, "GSK3b": {"target": "GSK3b (Homo sapiens, UniProt P49841)", "sequence (P49841 whole entry)": "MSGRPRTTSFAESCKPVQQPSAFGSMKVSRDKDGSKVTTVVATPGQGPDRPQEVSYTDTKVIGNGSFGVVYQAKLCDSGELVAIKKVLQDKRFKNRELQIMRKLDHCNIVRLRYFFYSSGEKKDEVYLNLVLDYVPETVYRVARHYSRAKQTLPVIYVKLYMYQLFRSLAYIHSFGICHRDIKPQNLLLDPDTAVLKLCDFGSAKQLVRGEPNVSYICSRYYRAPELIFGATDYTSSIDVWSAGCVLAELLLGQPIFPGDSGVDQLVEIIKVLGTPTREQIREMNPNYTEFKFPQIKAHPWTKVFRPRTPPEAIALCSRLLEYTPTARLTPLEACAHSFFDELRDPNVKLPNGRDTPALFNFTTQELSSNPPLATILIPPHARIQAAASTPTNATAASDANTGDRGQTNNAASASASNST", "assay": "HotSpot kinase assay", "details": "read-out: % Enzyme Activity (relative to DMSO control), 10 uM", "source_text": "as §1"}, "PAK1": {"target": "PAK1 (Homo sapiens, UniProt Q13153)", "assay": "HotSpot kinase assay", "details": "read-out: % Enzyme Activity (relative to DMSO control), 10 uM", "source_text": "as §1"}, "PIM3": {"target": "PIM3 (Homo sapiens, UniProt Q86V86)", "assay": "HotSpot kinase assay", "details": "read-out: % Enzyme Activity (relative to DMSO control), 10 uM", "source_text": "as §1"}, "CAMK4": {"target": "CAMK4 (Homo sapiens, UniProt Q16566)", "assay": "HotSpot kinase assay", "details": "read-out: % Enzyme Activity (relative to DMSO control), 10 uM", "source_text": "as §1"}, "TAOK1": {"target": "TAOK1 (Homo sapiens, UniProt Q7L7X3)", "assay": "HotSpot kinase assay", "details": "read-out: % Enzyme Activity (relative to DMSO control), 10 uM"}, "FLT1/VEGFR1": {"target": "FLT1/VEGFR1 (Homo sapiens, UniProt P17948)", "assay": "HotSpot kinase assay", "details": "read-out: % Enzyme Activity (relative to DMSO control), 10 uM", "source_text": "as §1"}, "PKCg": {"target": "PKCg (Homo sapiens, UniProt P05129)", "assay": "HotSpot kinase assay", "details": "read-out: % Enzyme Activity (relative to DMSO control), 10 uM", "source_text": "as §1"}, "AKT2": {"target": "AKT2 (Homo sapiens, UniProt P31751)", "assay": "HotSpot kinase assay", "details": "read-out: % Enzyme Activity (relative to DMSO control), 10 uM", "source_text": "as §1"}, "SSTK/TSSK6": {"target": "SSTK/TSSK6 (Homo sapiens, UniProt Q9BXA6)", "assay": "HotSpot kinase assay", "details": "read-out: % Enzyme Activity (relative to DMSO control), 10 uM"}, "MRCKa/CDC42BPA": {"target": "MRCKa/CDC42BPA (Homo sapiens, UniProt Q5VT25)", "assay": "HotSpot kinase assay", "details": "read-out: % Enzyme Activity (relative to DMSO control), 10 uM", "source_text": "as §1"}, "RSK2": {"target": "RSK2 (Homo sapiens, UniProt P51812)", "assay": "HotSpot kinase assay", "details": "read-out: % Enzyme Activity (relative to DMSO control), 10 uM", "source_text": "as §1"}, "TLK2": {"target": "TLK2 (Homo sapiens, UniProt Q86UE8)", "assay": "HotSpot kinase assay", "details": "read-out: % Enzyme Activity (relative to DMSO control), 10 uM", "source_text": "as §1"}, "PDGFRa": {"target": "PDGFRa (Homo sapiens, UniProt P16234)", "assay": "HotSpot kinase assay", "details": "read-out: % Enzyme Activity (relative to DMSO control), 10 uM", "source_text": "as §1"}, "TEC": {"target": "TEC (Homo sapiens, UniProt P42680)", "sequence (P42680 whole entry)": "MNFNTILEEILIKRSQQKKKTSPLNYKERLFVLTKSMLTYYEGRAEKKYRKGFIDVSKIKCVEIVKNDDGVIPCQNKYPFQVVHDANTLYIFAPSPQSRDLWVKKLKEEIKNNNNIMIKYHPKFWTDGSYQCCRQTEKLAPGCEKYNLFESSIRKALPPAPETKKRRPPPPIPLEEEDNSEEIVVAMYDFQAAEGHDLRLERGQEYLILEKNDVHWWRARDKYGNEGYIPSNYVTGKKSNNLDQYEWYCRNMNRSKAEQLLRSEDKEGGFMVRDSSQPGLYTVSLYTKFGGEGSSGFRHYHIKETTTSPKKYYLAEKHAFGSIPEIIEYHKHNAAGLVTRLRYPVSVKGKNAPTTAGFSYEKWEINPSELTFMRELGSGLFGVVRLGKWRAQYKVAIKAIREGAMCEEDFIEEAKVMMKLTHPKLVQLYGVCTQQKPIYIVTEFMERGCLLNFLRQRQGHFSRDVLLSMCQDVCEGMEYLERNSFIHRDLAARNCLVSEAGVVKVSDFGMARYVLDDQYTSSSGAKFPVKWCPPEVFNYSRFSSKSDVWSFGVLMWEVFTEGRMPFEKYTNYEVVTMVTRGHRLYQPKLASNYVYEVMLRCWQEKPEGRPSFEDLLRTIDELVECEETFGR", "assay": "HotSpot kinase assay", "details": "read-out: % Enzyme Activity (relative to DMSO control), 10 uM", "source_text": "as §1"}, "MEKK6": {"target": "MEKK6 (Homo sapiens, UniProt O95382)", "assay": "HotSpot kinase assay", "details": "read-out: % Enzyme Activity (relative to DMSO control), 10 uM", "source_text": "as §1"}, "LRRK2": {"target": "LRRK2 (Homo sapiens, UniProt Q5S007)", "assay": "HotSpot kinase assay", "details": "read-out: % Enzyme Activity (relative to DMSO control), 10 uM", "source_text": "as §1"}, "MLK3/MAP3K11": {"target": "MLK3/MAP3K11 (Homo sapiens, UniProt Q16584)", "assay": "HotSpot kinase assay", "details": "read-out: % Enzyme Activity (relative to DMSO control), 10 uM", "source_text": "as §1"}, "GRK6": {"target": "GRK6 (Homo sapiens, UniProt P43250)", "sequence (P43250 whole entry)": "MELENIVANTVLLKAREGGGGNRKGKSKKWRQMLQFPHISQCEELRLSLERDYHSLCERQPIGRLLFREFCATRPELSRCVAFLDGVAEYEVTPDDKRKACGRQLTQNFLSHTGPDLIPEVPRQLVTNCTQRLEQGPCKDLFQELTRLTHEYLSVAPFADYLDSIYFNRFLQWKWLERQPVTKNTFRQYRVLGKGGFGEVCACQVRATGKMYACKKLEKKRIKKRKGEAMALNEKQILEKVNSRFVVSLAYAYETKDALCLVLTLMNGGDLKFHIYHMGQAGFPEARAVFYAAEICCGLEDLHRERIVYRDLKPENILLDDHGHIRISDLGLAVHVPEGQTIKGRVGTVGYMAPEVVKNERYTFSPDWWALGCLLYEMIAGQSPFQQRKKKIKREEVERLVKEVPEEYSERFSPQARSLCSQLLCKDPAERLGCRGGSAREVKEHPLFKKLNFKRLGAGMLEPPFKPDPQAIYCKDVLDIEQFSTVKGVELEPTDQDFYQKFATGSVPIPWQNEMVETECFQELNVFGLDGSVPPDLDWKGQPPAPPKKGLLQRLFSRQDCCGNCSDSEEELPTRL", "assay": "HotSpot kinase assay", "details": "read-out: % Enzyme Activity (relative to DMSO control), 10 uM", "source_text": "as §1"}, "GRK5": {"target": "GRK5 (Homo sapiens, UniProt P34947)", "assay": "HotSpot kinase assay", "details": "read-out: % Enzyme Activity (relative to DMSO control), 10 uM"}, "MEK2": {"target": "MEK2 (Homo sapiens, UniProt P36507)", "assay": "HotSpot kinase assay", "details": "read-out: % Enzyme Activity (relative to DMSO control), 10 uM"}, "LYN": {"target": "LYN (Homo sapiens, UniProt P07948)", "sequence (P07948 whole entry)": "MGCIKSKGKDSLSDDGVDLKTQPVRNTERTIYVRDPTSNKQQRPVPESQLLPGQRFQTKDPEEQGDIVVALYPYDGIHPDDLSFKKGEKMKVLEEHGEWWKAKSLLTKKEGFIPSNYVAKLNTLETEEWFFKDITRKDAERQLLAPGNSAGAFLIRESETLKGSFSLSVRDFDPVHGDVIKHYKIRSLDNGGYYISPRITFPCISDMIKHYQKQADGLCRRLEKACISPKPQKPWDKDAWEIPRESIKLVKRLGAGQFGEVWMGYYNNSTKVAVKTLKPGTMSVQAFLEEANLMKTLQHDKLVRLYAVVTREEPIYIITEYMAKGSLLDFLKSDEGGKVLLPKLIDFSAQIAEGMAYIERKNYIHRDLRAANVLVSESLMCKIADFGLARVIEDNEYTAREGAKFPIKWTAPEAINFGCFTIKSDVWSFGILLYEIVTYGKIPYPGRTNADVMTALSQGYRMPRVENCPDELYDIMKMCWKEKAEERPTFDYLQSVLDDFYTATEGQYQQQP", "assay": "HotSpot kinase assay", "details": "read-out: % Enzyme Activity (relative to DMSO control), 10 uM", "source_text": "as §1"}, "DYRK2": {"target": "DYRK2 (Homo sapiens, UniProt Q92630)", "sequence (Q92630 whole entry)": "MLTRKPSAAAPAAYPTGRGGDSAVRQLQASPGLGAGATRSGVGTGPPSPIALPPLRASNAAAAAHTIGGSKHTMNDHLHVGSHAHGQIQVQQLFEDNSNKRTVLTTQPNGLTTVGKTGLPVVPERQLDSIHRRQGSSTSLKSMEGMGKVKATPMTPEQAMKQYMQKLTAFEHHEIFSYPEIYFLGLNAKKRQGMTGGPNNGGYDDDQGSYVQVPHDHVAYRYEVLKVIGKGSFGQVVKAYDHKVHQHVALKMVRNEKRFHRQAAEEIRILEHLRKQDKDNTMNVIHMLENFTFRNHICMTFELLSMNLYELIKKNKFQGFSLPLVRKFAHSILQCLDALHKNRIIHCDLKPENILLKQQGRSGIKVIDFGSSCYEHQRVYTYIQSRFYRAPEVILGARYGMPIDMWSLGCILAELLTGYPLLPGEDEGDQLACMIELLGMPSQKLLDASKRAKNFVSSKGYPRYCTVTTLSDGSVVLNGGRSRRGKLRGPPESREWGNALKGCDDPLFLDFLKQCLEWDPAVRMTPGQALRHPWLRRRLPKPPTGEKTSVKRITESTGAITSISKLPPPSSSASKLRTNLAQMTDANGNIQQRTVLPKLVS", "assay": "HotSpot kinase assay", "details": "read-out: % Enzyme Activity (relative to DMSO control), 10 uM", "source_text": "as §1"}, "PDK1/PDHK1": {"target": "PDK1/PDHK1 (Homo sapiens, UniProt Q15118)", "assay": "HotSpot kinase assay", "details": "read-out: % Enzyme Activity (relative to DMSO control), 10 uM"}, "BMX/ETK": {"target": "BMX/ETK (Homo sapiens, UniProt P51813)", "assay": "HotSpot kinase assay", "details": "read-out: % Enzyme Activity (relative to DMSO control), 10 uM"}, "[1]": {"assay": "28 day GLP toxicology study", "assay_type": "in vivo", "details": "dogs"}, "MLCK/MYLK": {"target": "MLCK/MYLK (Homo sapiens, UniProt Q15746)", "assay": "HotSpot kinase assay", "details": "read-out: % Enzyme Activity (relative to DMSO control), 10 uM", "source_text": "as §1"}, "DAPK2": {"target": "DAPK2 (Homo sapiens, UniProt Q9UIK4)", "assay": "HotSpot kinase assay", "details": "read-out: % Enzyme Activity (relative to DMSO control), 10 uM", "source_text": "as §1"}, "MAPKAPK2": {"target": "MAPKAPK2 (Homo sapiens, UniProt P49137)", "sequence (P49137 whole entry)": "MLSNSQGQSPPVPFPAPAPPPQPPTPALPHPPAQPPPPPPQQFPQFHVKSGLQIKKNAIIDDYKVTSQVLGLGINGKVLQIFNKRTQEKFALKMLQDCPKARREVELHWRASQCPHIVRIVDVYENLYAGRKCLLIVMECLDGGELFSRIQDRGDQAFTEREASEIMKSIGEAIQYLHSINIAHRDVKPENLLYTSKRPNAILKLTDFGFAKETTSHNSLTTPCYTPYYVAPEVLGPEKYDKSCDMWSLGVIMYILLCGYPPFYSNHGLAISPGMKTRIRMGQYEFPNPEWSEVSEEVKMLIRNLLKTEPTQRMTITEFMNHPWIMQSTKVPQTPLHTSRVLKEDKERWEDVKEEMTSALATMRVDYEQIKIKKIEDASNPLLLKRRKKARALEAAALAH", "assay": "HotSpot kinase assay", "details": "read-out: % Enzyme Activity (relative to DMSO control), 10 uM", "source_text": "as §1"}, "BTK": {"target": "BTK (Homo sapiens, UniProt Q06187)", "assay": "HotSpot kinase assay", "details": "read-out: % Enzyme Activity (relative to DMSO control), 10 uM", "source_text": "as §1"}, "STK38/NDR1": {"target": "STK38/NDR1 (Homo sapiens, UniProt Q15208)", "assay": "HotSpot kinase assay", "details": "read-out: % Enzyme Activity (relative to DMSO control), 10 uM", "source_text": "as §1"}, "ARAF": {"target": "ARAF (Homo sapiens, UniProt P10398)", "assay": "HotSpot kinase assay", "details": "read-out: % Enzyme Activity (relative to DMSO control), 10 uM"}, "STK38L/NDR2": {"target": "STK38L/NDR2 (Homo sapiens, UniProt Q9Y2H1)", "assay": "HotSpot kinase assay", "details": "read-out: % Enzyme Activity (relative to DMSO control), 10 uM", "source_text": "as §1"}, "CAMK1g": {"target": "CAMK1g (Homo sapiens, UniProt Q96NX5)", "assay": "HotSpot kinase assay", "details": "read-out: % Enzyme Activity (relative to DMSO control), 10 uM", "source_text": "as §1"}, "TTBK2": {"target": "TTBK2 (Homo sapiens, UniProt Q6IQ55)", "assay": "HotSpot kinase assay", "details": "read-out: % Enzyme Activity (relative to DMSO control), 10 uM", "source_text": "as §1"}, "PKG1a": {"target": "PKG1a (Homo sapiens, UniProt Q13976)", "assay": "HotSpot kinase assay", "details": "read-out: % Enzyme Activity (relative to DMSO control), 10 uM", "source_text": "as §1"}, "AXL": {"target": "AXL (Homo sapiens, UniProt P30530)", "assay": "HotSpot kinase assay", "details": "read-out: % Enzyme Activity (relative to DMSO control), 10 uM", "source_text": "as §1"}, "ULK2": {"target": "ULK2 (Homo sapiens, UniProt Q8IYT8)", "assay": "HotSpot kinase assay", "details": "read-out: % Enzyme Activity (relative to DMSO control), 10 uM", "source_text": "as §1"}, "BLK": {"target": "BLK (Homo sapiens, UniProt P51451)", "assay": "HotSpot kinase assay", "details": "read-out: % Enzyme Activity (relative to DMSO control), 10 uM"}}, "data": [{"smiles": "C#C[C@@](C)(c1ccc(Cl)cc1)c1csc(NC(=O)c2c(F)cc(N3CCNCC3)cc2F)n1", "note": "(stereo in doubt) [DF-003]", "values": [{"measurement": "remaining activity at 10 µM", "setting": "AMPK (A2/B1/G2)", "result": 82.9, "unit": "%"}, {"measurement": "remaining activity at 10 µM", "setting": "CAMK1b", "result": 36.7, "unit": "%"}, {"measurement": "remaining activity at 10 µM", "setting": "GSK3b", "result": 93.3, "unit": "%"}, {"measurement": "remaining activity at 10 µM", "setting": "PAK1", "result": 122, "unit": "%"}, {"measurement": "remaining activity at 10 µM", "setting": "PIM3", "result": 95.5, "unit": "%"}, {"measurement": "remaining activity at 10 µM", "setting": "CAMK4", "result": 34.5, "unit": "%"}, {"measurement": "remaining activity at 10 µM", "setting": "TAOK1", "result": 16.8, "unit": "%"}, {"measurement": "remaining activity at 10 µM", "setting": "FLT1/VEGFR1", "result": 79.2, "unit": "%"}, {"measurement": "remaining activity at 10 µM", "setting": "PKCg", "result": 93.5, "unit": "%"}, {"measurement": "remaining activity at 10 µM", "setting": "AKT2", "result": 93.6, "unit": "%"}, {"measurement": "remaining activity at 10 µM", "setting": "SSTK/TSSK6", "result": 98.4, "unit": "%"}, {"measurement": "remaining activity at 10 µM", "setting": "MRCKa/CDC42BPA", "result": 85.9, "unit": "%"}, {"measurement": "remaining activity at 10 µM", "setting": "RSK2", "result": 104, "unit": "%"}, {"measurement": "remaining activity at 10 µM", "setting": "TLK2", "result": 92.1, "unit": "%"}, {"measurement": "remaining activity at 10 µM", "setting": "PDGFRa", "result": 87.6, "unit": "%"}, {"measurement": "remaining activity at 10 µM", "setting": "TEC", "result": 104, "unit": "%"}, {"measurement": "remaining activity at 10 µM", "setting": "MEKK6", "result": 73.4, "unit": "%"}, {"measurement": "remaining activity at 10 µM", "setting": "LRRK2", "result": 99.2, "unit": "%"}, {"measurement": "remaining activity at 10 µM", "setting": "MLK3/MAP3K11", "result": 77.8, "unit": "%"}, {"measurement": "remaining activity at 10 µM", "setting": "GRK6", "result": 117, "unit": "%"}, {"measurement": "remaining activity at 10 µM", "setting": "GRK5", "result": 117, "unit": "%"}, {"measurement": "remaining activity at 10 µM", "setting": "MEK2", "result": 89.8, "unit": "%"}, {"measurement": "remaining activity at 10 µM", "setting": "LYN", "result": 137, "unit": "%"}, {"measurement": "remaining activity at 10 µM", "setting": "DYRK2", "result": 83.6, "unit": "%"}, {"measurement": "remaining activity at 10 µM", "setting": "PDK1/PDHK1", "result": 101, "unit": "%"}, {"measurement": "remaining activity at 10 µM", "setting": "BMX/ETK", "result": 87.5, "unit": "%"}, {"measurement": "general immunosuppression", "setting": "[1]", "result": "no general immunosuppression was observed"}, {"measurement": "remaining activity at 10 µM", "setting": "MLCK/MYLK", "result": 68.4, "unit": "%"}, {"measurement": "remaining activity at 10 µM", "setting": "DAPK2", "result": 73.9, "unit": "%"}, {"measurement": "remaining activity at 10 µM", "setting": "MAPKAPK2", "result": 108, "unit": "%"}, {"measurement": "remaining activity at 10 µM", "setting": "BTK", "result": 76.8, "unit": "%"}, {"measurement": "remaining activity at 10 µM", "setting": "STK38/NDR1", "result": 90, "unit": "%"}, {"measurement": "remaining activity at 10 µM", "setting": "ARAF", "result": 92.8, "unit": "%"}, {"measurement": "remaining activity at 10 µM", "setting": "STK38L/NDR2", "result": 90.6, "unit": "%"}, {"measurement": "remaining activity at 10 µM", "setting": "CAMK1g", "result": 56.6, "unit": "%"}, {"measurement": "remaining activity at 10 µM", "setting": "TTBK2", "result": 98.2, "unit": "%"}, {"measurement": "remaining activity at 10 µM", "setting": "PKG1a", "result": 111, "unit": "%"}, {"measurement": "remaining activity at 10 µM", "setting": "AXL", "result": 47.9, "unit": "%"}, {"measurement": "remaining activity at 10 µM", "setting": "ULK2", "result": 86, "unit": "%"}, {"measurement": "remaining activity at 10 µM", "setting": "BLK", "result": 74.5, "unit": "%"}]}]}
